Measured values: patent US12378190B2, “Two-component coating system” (COVESTRO (NETHERLANDS) B.V., priority 2020, dated 2025)

Experiments:
[1] = test system: Bscl2-GFP and Rtkn-GFP mES reporter cell lines; test: ToxTracker genotoxicity assay, overall conclusion; settings: positive: >=2-fold induction; weakly positive: >1.5 and <2-fold; negative: <=[…] at 10, 25 and 50% cytotoxicity, with and without S9
Protocol: A 2 L four-necked flask equipped with a thermometer and overhead stirrer was charged with sodium lauryl sulphate (30% solids in water, 18.6 grams of solution) and demineralized water (711 grams). The reactor phase was placed under N2 atmosphere and heated to 82° C. A mixture of demineralized water (112 grams), sodium lauryl sulphate (30% solids in water, 37.2 grams of solution), methyl methacrylate (209.3 grams), n-butyl acrylate (453.56 grams) and methacrylic acid (34.88 grams) was placed in a large feeding funnel and emulsified with an overhead stirrer (monomer feed). Ammonium persulphate (1.75 grams) was dissolved in demineralized water (89.61 grams) and placed in a small feeding funnel (initiator feed). Ammonium persulphate (1.75 grams) was dissolved in demineralized water (10.5 grams), and this solution was added to the reactor phase. Immediately afterwards, 5% by volume of the monomer feed was added to the reactor phase. The reaction mixture then exothermed to 85° C. and was kept at 85° C. for 5 minutes. Then, the residual monomer feed and the initiator feed were fed to the reaction mixture over 90 minutes, maintaining a temperature of 85° C. […] Metabolic was evaluated by addition of S9 liver extract. […] Only GFP expression in intact single cells is determined. […]

[2] = test system: Rtkn-GFP mouse embryonic stem (mES) reporter cell line; test: ToxTracker genotoxicity assay, Rtkn-GFP reporter induction
Protocol: A 2 L four-necked flask equipped with a thermometer and overhead stirrer was charged with sodium lauryl sulphate (30% solids in water, 18.6 grams of solution) and demineralized water (711 grams). The reactor phase was placed under N2 atmosphere and heated to 82° C. A mixture of demineralized water (112 grams), sodium lauryl sulphate (30% solids in water, 37.2 grams of solution), methyl methacrylate (209.3 grams), n-butyl acrylate (453.56 grams) and methacrylic acid (34.88 grams) was placed in a large feeding funnel and emulsified with an overhead stirrer (monomer feed). Ammonium persulphate (1.75 grams) was dissolved in demineralized water (89.61 grams) and placed in a small feeding funnel (initiator feed). Ammonium persulphate (1.75 grams) was dissolved in demineralized water (10.5 grams), and this solution was added to the reactor phase. Immediately afterwards, 5% by volume of the monomer feed was added to the reactor phase. The reaction mixture then exothermed to 85° C. and was kept at 85° C. for 5 minutes. Then, the residual monomer feed and the initiator feed were fed to the reaction mixture over 90 minutes, maintaining a temperature of 85° C. After completion of the feeds, the monomer feed funnel was rinsed with demineralized water (18.9 grams) and reaction temperature maintained at 85° C. for 45 minutes. Subsequently, the mixture was cooled to room temperature and brought to pH=7.2 with ammonia solution (6.25 wt. % in demineralized water), and brought to 40% solids with further demineralized water. […] This methodology uses a two step-approach. […] Metabolic was evaluated by addition of S9 liver extract. […] Only GFP expression in intact single cells is determined. […] Components and Abbreviations Used: Dimethylformamide (CAS No. 68-12-2) was obtained from Acros Organics (a division of Thermo Fisher Scientific). […] IPDI (5-isocyanato-1-(isocyanatomethyl)-1,3,3-trimethylcyclohexane, Desmodur® I, isophorone diisocyanate, CAS No. 4098-71-9) was obtained from Covestro. Polyethylene Glycol Monomethyl Ether (CAS No. 9004-74-4) with a number average molecular weight of 1000 Da was obtained from Tokyo Chemical Industry Co., Ltd. Vestanat® T 1890/100, an isophorone diisocyanate based isocyanurate (CAS No. 67873-91-0) was obtained from Evonik. Desmodur® N3600 was obtained from Covestro. 1-methoxy-2-propanol acetate (propylene glycol methyl ether acetate, CAS No. 108-65-6) was obtained from Shell Chemicals. 1-(2-hydroxyethyl)ethyleneimine) (CAS No. 1072-52-2) was obtained from Tokyo Chemical Industry Co., Ltd. Jeffamine® XTJ-436 (CAS No. 118270-87-4) was obtained from Huntsman Bismuth neodecanoate (CAS No. 34364-26-6) obtained from TIB chemicals AG (Mannheim, Germany). Hydrazine (16% solution in water, CAS No. 302-01-2) was obtained from Honeywell. Dimethylol propionic acid (DMPA, CAS No. 4767-03-7) was obtained from Perstop Polyols. Triethylamine (TEA, CAS No. 121-44-8) was obtained from Arkema 1-propanol (CAS No. 71-23-8) was obtained from Sigma-Aldrich. Tin 2-ethylhexanoate (CAS No. 301-10-0) was obtained from Sigma-Aldrich. Dibutyltindilaurate (CAS No. 77-58-7) was obtained from Sigma-Aldrich. Tegomer® D3403 was obtained from Evonik. Polypropyleneglycol with a number average molecular weight of 1000 Da and with a number average molecular weight of 2000 Da was obtained from BASF. 3-Methyl-1-phenyl-2-phospholene-1-oxide (CAS No. 707-61-9) was obtained from Sigma-Aldrich. 1-Butanol (CAS No. 71-36-3) was obtained from Sigma-Aldrich. Sodium lauryl sulphate (30% solution in water, CAS No. 73296-89-6) was obtained from BASF. Methyl methacrylate (CAS No. 80-62-6) was obtained from Lucite Int. n-Butyl acrylate (CAS No. 141-32-2) was obtained from Dow Chemical. Methacrylic acid (CAS No. 79-41-4) was obtained from Lucite Int. Ammonium persulphate (CAS No. 7727-54-0) was obtained from United Initiators. Ammonia (25% solution in water, CAS No. 1336-21-6) was obtained from Merck

## O=C(CCN1CC1)OCC(CO)(COC(=O)CCN1CC1)COC(=O)CCN1CC1 [Comparative Example 3, pentaerythritol tris(3-(1-aziridinyl)propionate)]
[1]
  Genotoxicity test conclusion: genotoxic

## O=C(NCCCCCCn1c(=O)n(CCCCCCNC(=O)OCCN2CC2)c(=O)n(CCCCCCNC(=O)OCCN2CC2)c1=O)OCCN1CC1 [compound 2]
[2]; with S9 rat liver extract, 3 h exposure and 24 h recovery, at 10% cytotoxicity
  Rtkn induction level: 2.0 fold
[2]; with S9 rat liver extract, 3 h exposure and 24 h recovery, at 25% cytotoxicity
  Rtkn induction level: 3.4 fold
[2]; with S9 rat liver extract, 3 h exposure and 24 h recovery, at 50% cytotoxicity
  Rtkn induction level: 3.0 fold
[2]; without S9 rat liver extract, 24 h exposure, at 10% cytotoxicity
  Rtkn induction level: 1.7 fold
[2]; without S9 rat liver extract, 24 h exposure, at 25% cytotoxicity
  Rtkn induction level: 2.4 fold
[2]; without S9 rat liver extract, 24 h exposure, at 50% cytotoxicity
  Rtkn induction level: 2.8 fold
[1]
  Genotoxicity test conclusion: genotoxic
